How the values were obtained:
K-Ras-NRK cells = test: Morphology of K-Ras-NRK cells treated overnight with inhibitors; format: cell-based, rat; conditions: 20 μM DPI, 30 μM PD98059, 10 mM n-acetyl cysteine (data not shown), FIG. 13
Experimental: Diphenylene iodonium (DPI), a Nox1 inhibitor, was used to examine the influence of Nox1 gene expression on the morphologies of the cells transformed with mutant Ras. Namely, K-Ras-NRK cells and NRK cells were cultured overnight at 37° C. in a medium containing 20 μM DPI or 30 μM PD98059 under a 5% CO2-containing moisture environment to observe morphological changes.

[1] = tested on: Nox1 expression in the K-Ras-NRK cells; test: Nox1 expression in K-Ras-NRK cells by real-time quantitative polymerase chain reaction; format: cell-based, rat; conditions: PD98059 20 μM, 100 μM, treated for 12 hours; FIG. 1(a)
Experimental: At first, rat kidney (NRK) cells and K-Ras-NRK cells (Kirstein murine sarcoma virus-transformed NRK cells) were prepared. The K-Ras-NRK cells were purchased from ATCC.
The presence or absence of Nox1 expression in the rat kidney (NRK) cells and the K-Ras-NRK cells was initially detected by real-time quantitative polymerase chain reaction. The real-time quantitative polymerase chain reaction used a forward primer of SEQ ID NO: 15, a reverse primer of SEQ ID NO: 16, and a TaqMan MGB probe of SEQ ID NO: 17.
The real-time quantitative polymerase chain reaction was performed using ABI Prism 7700 (Applied Biosystems) under reaction conditions set to defaults. Analytical values were standardized using rRNA 18S.
(§1) A series of experiments were performed for analyzing the downstream region of a Ras signaling pathway of Nox1 gene expression elevated by mutant Ras gene. In Examples 1 and 2, the cells were treated for 12 hours with PD98059 (PD: 20 μM, 100 μM), an MAPKK inhibitor, to analyze Nox1 expression in the K-Ras-NRK cells and serum- and EGF-induced Nox1 expression by real-time quantitative polymerase chain reaction.

[2] = tested on: Nox1 gene expression in NIH3T3 cells; test: Serum- and EGF-induced Nox1 expression in NIH3T3 cells by real-time quantitative polymerase chain reaction; format: cell-based
Experimental: NIH3T3 cells cultured overnight under serum-free conditions were treated mitogeniclally with serum (30%) or 50 ng/ml epidermal growth factor (EGF) and then analyzed by real-time quantitative polymerase chain reaction. As a result, Nox1 gene expression was increased to 6 to 20 times within 12 hours from the initiation of the culture, as shown in FIGS. 1(c) and (d). That is, Nox1 gene expression is associated with factors that promote cell growth. This is consistent with the reports saying that both platelet-derived growth factor (PDGF) and angiotensin II induce superoxide formation and Nox1 gene expression in vascular smooth muscle cells (1 and 4).
as §1

[3] = tested on: Nox1 expression in the H-Ras-NIH3T3 cells; test: Control experiment: Nox1 expression in H-Ras-NIH3T3 cells; format: cell-based; conditions: wortmannin 100 nM; data not shown
[4] = tested on: superoxide production in K-Ras-NRK cells; test: Superoxide production by NBT reduction analysis; format: cell-based, rat; conditions: 40 units of superoxide dismutase, 37° C., 8 minutes
Experimental: The present inventors measured superoxide production by NBT reduction analysis using the transformed cells of Example 4 in order to evaluate the role of Nox1 in superoxide production induced by mutant Ras. In the present example, the method of Suh et al. was used in the NBT (nitroblue tetrazolium) analysis (1). Namely, 0.2 ml of a Hanks solution containing 0.25% NBT was prepared with or without 40 units of superoxide dismutase (SOD), a reactive oxygen-digesting enzyme, in which 2×10^5 cells were in turn suspended and treated at 37° C. for 8 minutes. The treated cells were separated by low-speed centrifugation and solubilized by the addition of 0.5 ml of pyridine. Absorbance at 510 nm was measured to quantify a decrease in NBT (extinction coefficient of 11,000/M/cm). The obtained data was shown in FIG. 6 with +/−s.e.m. from 3 measurements.

## c1ccc2c(c1)[I+]c1ccccc1-2 [DPI, Diphenylene iodonium]
K-Ras-NRK cells
  morphological changes of K-Ras-NRK cells: transiently assumed a flat shape that was close to the shape of the NRK cells

## COc1cccc(-c2cc(=O)c3ccccc3o2)c1N [PD98059]
[1]
  Nox1 expression in the K-Ras-NRK cells: inhibited by the PD98059 concentration-dependently
K-Ras-NRK cells
  morphological changes of K-Ras-NRK cells: such morphological changes were also observed
[2]; 20 μM PD98059, 50 ng/ml EGF, FIG. 1(d)
  EGF-induced Nox1 expression: inhibited
[2]; 20 μM PD98059, serum (30%), FIG. 1(c)
  serum-induced Nox1 expression: inhibited

## CC(=O)N[C@@H](CS)C(=O)O [n-acetyl cysteine]
K-Ras-NRK cells
  morphological changes of K-Ras-NRK cells: transiently assumed a flat shape that was close to the shape of the NRK cells

## COC[C@H]1OC(=O)c2coc3c2[C@@]1(C)C1=C(C3=O)[C@@H]2CCC(=O)[C@@]2(C)C[C@H]1OC(C)=O [wortmannin]
[3]
  increase in Nox1 expression in the H-Ras-NIH3T3 cells: did not inhibit

## superoxide dismutase
[4]
  NBT reduction increased in K-Ras-NRK and K-Ras-NRK/neg-1: inhibited

Reference: US20070009509A1, “Antibody against nox1 polypeptide, method of diagnosing cancer with the use of nox1 gene and method of screening cancer growth inhibitor” (priority 2003, published 2007)
